Laboratory results: patent US20050107616A1, “Alpha-ketoamide derivatives as cathepsin k inhibitors” (priority 2001, published 2005)

Target: T1, human cathepsin K (Homo sapiens, UniProt P43235)
T1 construct: The proform of cathepsin K was converted to mature cathepsin K by brief exposure to pH 4; made in house; host or cells: baculovirus; Trichoplusia ni High Five cells (virus raised in Sf-9)
T1 sequence (P43235 115-329): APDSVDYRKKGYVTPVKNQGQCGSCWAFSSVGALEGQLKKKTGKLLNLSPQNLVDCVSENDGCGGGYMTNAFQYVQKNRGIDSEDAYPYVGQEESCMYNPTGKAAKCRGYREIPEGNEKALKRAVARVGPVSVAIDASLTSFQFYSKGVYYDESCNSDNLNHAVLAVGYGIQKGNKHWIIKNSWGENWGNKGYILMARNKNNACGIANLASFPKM
Assay: Cathepsin K inhibition assay, fluorogenic substrate Cbz-Phe-Arg-AMC, progress curve method
Format: biochemical
Details: Table 1; human recombinant enzyme, pH 5.5, 30° C., 10 μM substrate; read-out: hCat K Ki
Description: All assays for cathepsin K were carried out with human and rat recombinant enzyme. Assays for cathepsins S Et V were also carried out with human recombinant enzyme. Assays for human cathepsins B. H. and L were carried out with enzyme, purchased from Athens Research and Technology, Inc., prepared from human liver tissue. […] A stock substrate solution of Cbz-Phe-Arg-AMC was prepared at a concentration of 50 mM in dimethyl sulfoxide. This substrate was diluted into the assay for a final substrate concentration of 10 μM in the rat cathepsin K, human cathepsin K, and human cathepsin B assays; a final substrate concentration of 5 μM in the human cathepsin L assay; and a final substrate concentration of 2 μM in the human cathepsin V assay.
All assays contained 10% dimethyl sulfoxide. […] All assays were conducted at 30° C. Product fluorescence (excitation at 360 nm; emission at 440 nm, (except cathepsin H which used excitation at 340 nm; emission at 420 nm)) was monitored with a PerSeptive Biosystems Cytofluor II fluorescence plate reader. Product progress curves were generated over 2.3 h monitoring the formation of 7-amino-4-methylcoumarin product (or β-naphthalamide for cathepsin H).
Two liters of Spodoptera frugiperda (Sf-9) cells (ATCC) were grown in Grace's Supplemented medium (Life Technologies) supplemented with 2 g/L glucose, 10% a fetal bovine serum (HyClone) and 0.10% pluronic F-68 (Life Technologies). […] The cells continued to grow for 72 h post-infection, before the virus was harvested by centrifugation at 1400× g for 30 min.
One and one-half liters of Trichoplusia ni (T. ni) High Five (TM) cells [JRH Biosciences, Woodland, Calif. […] Media were separated from cells at a rate of 1 L/min using the Centritech 100 (TM) continuous-flow centrifuge (DuPont) operating at 200× g.
Protein Purification: Media (human and rat) were filtered through a Whatman 3 filter, and then loaded onto a 25 mL Poros HS II (26 mm×47 mm) cation exchange column equilibrated in 25 mM sodium acetate at pH 5.5 (equilibration buffer). The column was washed until the absorbance reached the baseline value, and then the protein was eluted with a linear gradient from 0-2 M sodium chloride in the equilibration buffer. Column fractions were analyzed by SDS-PAGE, N-terminal sequencing, and mass spectrometry. Fractions containing the proform of cathepsin K were pooled and frozen at −80° C. The proform was concentrated in an Amicon Centriprep 10 and fractionated with a Superdex 75 column (26 mm×600 mm, Pharmacia) equilibrated in 400 mM sodium chloride, 25 mM sodium acetate at pH 5.5.
Cathepsin K Activation: The proform of cathepsin K was converted to mature cathepsin K by brief exposure to pH 4 in the presence of 5 mM L-cysteine. Typically, 5 mM L-cysteine was added to 10 mL of approximately 1 mg/mL procathepsin K. One mL of this solution was diluted ten-fold into 450 mM sodium acetate at pH 4.0 containing 5 mM L-cysteine. This solution was reacted at 23° C. for 2 min before neutralization with 2 mL 1.8 M sodium acetate at pH 6.0. The neutralized sample was added to the remaining 9 mL of procathepsin K. The mixture was incubated at 4° C. for 2-3 days. The activated cathepsin K was chromatographed on a Poros HS II column as described above.
Potential inhibitors were evaluated using the progress curve method. Assays were carried out in the presence of variable concentrations of test compound. Reactions were initiated by addition of buffered solutions of inhibitor and substrate to enzyme. Data analysis was conducted according to one of two procedures depending on the appearance of the progress curves in the presence of inhibitors. […] Ki values were calculated from IC50 values using equation 2 assuming a competitive model. [formula]

Row | Ki | SMILES
1 | 1 to 100 nM | CCCC[C@H](NC(=O)O[C@H](Cn1cnc(-c2ccc(C(F)(F)F)cc2)c1)C(C)(C)C)C(=O)C(=O)Nc1nccs1 [Example 51, (1S)-2,2-dimethyl-1-({4-[4-(trifluoromethyl)phenyl]-1H-imidazol-1-yl}methyl)propyl(1S)-1-[oxo(1,3-thiazol-2-ylamino)acetyl]pentylcarbamate]
2 | 0.01 to 1 nM | CCCC[C@H](NC(=O)O[C@H](c1nnc(-c2cccnc2)o1)C(C)(C)C)C(=O)C(=O)Nc1ccn[nH]1 [Example 52, (1S)-2,2-dimethyl-1-[5-(3-pyridinyl)-1,3,4-oxadiazol-2-yl]propyl(1S)-1-[oxo(1H-pyrazol-5-ylamino)acetyl]pentylcarbamate]
3 | 1 to 100 nM | CCCC[C@H](NC(=O)O[C@@H](c1nnc(-c2cccnc2)o1)C(C)(C)C)C(=O)C(=O)Nc1ccn[nH]1 [Example 53, (1R)-2,2-dimethyl-1-[5-(3-pyridinyl)-1,3,4-oxadiazol-2-yl]propyl(1S)-1-[oxo(1H-pyrazol-5-ylamino)acetyl]pentylcarbamate]
4 | 0.01 to 1 nM | CCCC[C@H](NC(=O)O[C@H](c1nnc(-c2ccncc2)o1)C(C)(C)C)C(=O)C(=O)Nc1ccn[nH]1 [Example 54, (1S)-2,2-dimethyl-1-[5-(4-pyridinyl)-1,3,4-oxadiazol-2-yl]propyl(1S)-1-[oxo(1H-pyrazol-5-ylamino)acetyl]pentylcarbamate]
5 | 100 to 10000 nM | CCCC[C@H](NC(=O)O[C@@H](c1nnc(-c2ccncc2)o1)C(C)(C)C)C(=O)C(=O)Nc1ccn[nH]1 [Example 55, (1R)-2,2-dimethyl-1-[5-(4-pyridinyl)-1,3,4-oxadiazol-2-yl]propyl (1S)-1-[oxo(1H-pyrazol-5-ylamino)acetyl]pentylcarbamate]
